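Five concentrations, 48 hours, 96-well plates. GI50: concentration for 50% inhibition of growth. At the TGI there is no net growth.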
Experiments:
Assay in all cases: NCI-60 cell line screen, 48 h
SW-620 colon = system: SW-620 colon
MCF7 breast = system: MCF7 breast
SNB-75 CNS = system: SNB-75 CNS
SK-MEL-5 melanoma = system: SK-MEL-5 melanoma
U251 CNS = system: U251 CNS
LOX IMVI melanoma = system: LOX IMVI melanoma
RXF 393 renal = system: RXF 393 renal
A549 NSCLC = system: A549 NSCLC
MDA-MB-435 = system: MDA-MB-435
DU-145 prostate = system: DU-145 prostate

Row | Compound | TGI (SW-620 colon) [µM] | TGI (MCF7 breast) [µM] | TGI (SNB-75 CNS) [µM] | TGI (SK-MEL-5 melanoma) [µM] | TGI (U251 CNS) [µM] | TGI (LOX IMVI melanoma) [µM] | TGI (RXF 393 renal) [µM] | TGI (A549 NSCLC) [µM] | TGI (MDA-MB-435) [µM] | TGI (DU-145 prostate) [µM] | GI50 (SW-620 colon) [nM] | GI50 (MCF7 breast) [nM] | GI50 (SK-MEL-5 melanoma) [nM] | GI50 (U251 CNS) [nM] | GI50 (LOX IMVI melanoma) [nM] | GI50 (A549 NSCLC) [nM] | GI50 (MDA-MB-435) [nM] | GI50 (DU-145 prostate) [nM]
1 | O=[N+]([O-])c1ccc2c(c1)n1c(N3CCCC3)[n+]3ccccc3c1c1c3cccc[n+]3c(N3CCCC3)n21 | > 100 | > 100 | > 100 | > 100 | > 100 | > 100 | > 100 | > 100 | > 100 | > 100 | – | – | – | – | – | – | – | –
2 | CC(C#N)N(CCc1ccccc1)C(=O)c1ccccc1 (stereo unspecified) | > 100 | > 100 | > 100 | > 100 | > 100 | > 100 | > 100 | > 100 | > 100 | > 100 | – | – | – | – | – | – | – | –
3 | COC(=O)/C=C1\C(=O)C=C2[C@@H]3C[C@H]4C[C@H](CC[C@@]4(C)N21)C3(C)NC(C)=O (stereo partly specified) | 24.7 | 68.7 | 27.4 | > 60 | > 56.9 | > 100 | > 39.9 | > 57.4 | 28.5 | 32.8 | – | – | – | – | – | – | – | –
4 | CC1=NN2C(=N)/C(=C/c3ccccc3)C(=O)N=C2S1 | > 100 | > 33.6 | > 100 | > 100 | > 100 | > 100 | > 100 | > 100 | > 100 | > 100 | – | – | – | – | – | – | – | –
5 | COc1ccc(C2SCC(=O)N2NC(=O)C(C)Oc2ccc(Cl)cc2Cl)cc1 (stereo unspecified) | > 100 | > 100 | 51.1 | > 100 | > 100 | > 100 | 59.2 | > 100 | > 100 | > 100 | – | – | – | – | – | – | – | –
6 | Cc1c(C#N)c(=N)oc2ccccc12 | > 100 | > 100 | > 100 | > 100 | > 100 | > 100 | > 100 | > 100 | > 100 | > 100 | – | – | – | – | – | – | – | –
7 | COc1ccc(NC(=O)CC(=O)N2N=C(N(c3ccccc3)c3ccccc3)CC2c2ccccc2)cc1 (stereo unspecified) | > 100 | > 100 | > 100 | – | > 100 | > 100 | > 100 | > 100 | > 100 | > 100 | – | – | – | – | – | – | – | –
8 | COc1cc2oc(=O)cc(C)c2cc1OC | > 100 | > 100 | > 100 | > 100 | > 100 | > 100 | – | > 100 | > 100 | > 100 | – | – | – | – | – | – | – | –
9 | C[C@]12CC[C@H]3[C@@H](CCC4=C(Br)C(=O)C=C[C@@]43O)[C@@H]1CCC2=O | > 100 | > 100 | – | > 100 | > 100 | > 100 | 57.1 | > 100 | > 100 | 68.7 | – | – | – | – | – | – | – | –
10 | N#C/C(=C1/c2cc([N+](=O)[O-])ccc2-c2c1cc([N+](=O)[O-])cc2[N+](=O)[O-])N1CCCCC1 | > 100 | > 100 | 41.2 | > 100 | > 100 | – | > 100 | > 100 | > 100 | > 100 | – | – | – | – | – | – | – | –
11 | CC1(C)[C@@H](OC(N)=O)C=C[C@]2(CO)[C@H]3CC[C@]4(C)[C@@H](c5ccc(=O)oc5)[C@@H](Cl)C[C@]4(O)C3=CC[C@@H]12 | 0.0145 | 0.0299 | – | 0.0158 | 0.0158 | 0.0106 | – | 0.00192 | 0.0215 | 0.00117 | 2.62 | < 0.1 | 2.69 | 4.3 | 2.09 | < 0.1 | 8.14 | < 0.1
12 | COc1cc(C)cc2c(-c3c(O)cc(O)c4c3C[C@H](C)N[C@H]4C)cc(-c3cc(-c4c(O)cc(O)c5c4C[C@H](C)N[C@H]5C)c4cc(C)cc(OC)c4c3O)c(O)c12 | > 100 | > 100 | > 100 | > 100 | > 100 | – | > 100 | > 100 | > 100 | > 100 | – | – | – | – | – | – | – | –
13 | COc1cccc(NC(=O)CC(=O)N2N=C(C)C(N=Nc3ccc(C(=O)O)cc3)C2=O)c1 (stereo unspecified) | > 100 | > 100 | 45.1 | > 100 | – | > 100 | > 100 | > 100 | > 100 | > 100 | – | – | – | – | – | – | – | –
14 | O=C(O)COc1cc(-c2ccccc2)nc2ccccc12 | > 100 | > 100 | > 100 | > 100 | > 100 | > 100 | – | > 100 | 73.8 | > 100 | – | – | – | – | – | – | – | –
15 | C=CCc1ccccc1C1CC2(C(=O)OC)OC1C(C(=O)OC)=C2C(=O)OC (stereo unspecified) | > 10 | > 10 | – | > 10 | > 10 | > 10 | > 10 | > 10 | > 10 | > 10 | – | – | – | – | – | – | – | –
16 | COc1cccc(C23CCCC(C2)N(C)CC3OC(=O)c2ccccc2)c1OC (stereo unspecified) | > 100 | > 100 | – | 27.4 | > 100 | 45.2 | – | > 100 | 38.4 | > 100 | – | – | – | – | – | – | – | –

Source: PubChem BioAssay (NCI)
